ChEMBL document CHEMBL1641535, “Design and synthesis of potent macrocyclic renin inhibitors” (Bioorg Med Chem Lett, 2011)
Blank lines part the entries; values can stand above or below the molecule they belong to.

Assays:
[1] = target: Beta-secretase 1 (Homo sapiens, UniProt P56817); assay: Inhibition of BACE1
[2] = target: T1, Renin (Homo sapiens, UniProt P00797); assay: Inhibition of renin
T1 sequence (P00797 whole entry): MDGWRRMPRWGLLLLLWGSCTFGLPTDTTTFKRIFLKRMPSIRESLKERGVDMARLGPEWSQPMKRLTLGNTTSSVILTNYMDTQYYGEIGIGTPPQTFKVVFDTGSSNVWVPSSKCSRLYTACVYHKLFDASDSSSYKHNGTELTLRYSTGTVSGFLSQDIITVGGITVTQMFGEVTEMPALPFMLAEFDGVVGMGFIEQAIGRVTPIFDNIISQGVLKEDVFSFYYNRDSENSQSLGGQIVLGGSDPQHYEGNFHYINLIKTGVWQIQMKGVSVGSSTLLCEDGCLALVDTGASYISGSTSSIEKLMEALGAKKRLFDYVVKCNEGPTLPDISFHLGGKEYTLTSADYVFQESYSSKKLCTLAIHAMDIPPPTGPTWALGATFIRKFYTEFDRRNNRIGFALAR

[3] = target: T1, Renin; assay: Inhibition of human plasma renin; type: cell-free
[4] = target: Cathepsin D (Homo sapiens, UniProt P07339); assay: Inhibition of cathepsin D
[5] = Intrinsic clearance in human liver microsomes; type: ADME, Microsome
[6] = Apparent permeability across wild type MDCK cells; type: ADME, cell-based, Canis lupus familiaris; conditions: dog
[7] = tested on: human Pgp; assay: Apparent permeability across MDCK cells transfected with human Pgp; type: ADME, cell-based, Canis lupus familiaris; conditions: dog, MDCK-MDR1
[8] = tested on: MDCK; assay: Efflux ratio of permeability from […] side of MDCK2 cells over expressing human Pgp; type: ADME, cell-based, Canis lupus familiaris; conditions: dog
[9] = tested on: MDCK; assay: Efflux ratio of permeability from […] side of wild type MDCK2 cells; type: ADME, cell-based, Canis lupus familiaris; conditions: dog

Chain of Beta-secretase 1 (P56817 whole entry): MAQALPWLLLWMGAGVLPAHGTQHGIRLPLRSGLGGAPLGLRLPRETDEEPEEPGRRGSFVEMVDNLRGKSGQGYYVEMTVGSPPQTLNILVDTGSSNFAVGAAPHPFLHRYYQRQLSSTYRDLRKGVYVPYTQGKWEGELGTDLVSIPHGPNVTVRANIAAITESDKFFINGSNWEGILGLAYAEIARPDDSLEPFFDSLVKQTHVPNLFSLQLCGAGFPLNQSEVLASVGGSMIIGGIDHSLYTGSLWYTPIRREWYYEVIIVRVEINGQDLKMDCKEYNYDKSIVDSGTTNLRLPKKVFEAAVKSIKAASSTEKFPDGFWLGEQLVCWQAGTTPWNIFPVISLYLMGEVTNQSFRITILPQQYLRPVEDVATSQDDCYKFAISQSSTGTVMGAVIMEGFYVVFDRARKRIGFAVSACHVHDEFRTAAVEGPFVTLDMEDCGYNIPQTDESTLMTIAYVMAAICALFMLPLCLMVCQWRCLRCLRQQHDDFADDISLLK
Chain of Cathepsin D (P07339 65-162 limits assumed): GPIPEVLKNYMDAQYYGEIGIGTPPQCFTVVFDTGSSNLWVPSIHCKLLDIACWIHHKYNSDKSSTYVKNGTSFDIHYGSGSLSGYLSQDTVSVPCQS
Chain of Cathepsin D (P07339 169-412 limits assumed): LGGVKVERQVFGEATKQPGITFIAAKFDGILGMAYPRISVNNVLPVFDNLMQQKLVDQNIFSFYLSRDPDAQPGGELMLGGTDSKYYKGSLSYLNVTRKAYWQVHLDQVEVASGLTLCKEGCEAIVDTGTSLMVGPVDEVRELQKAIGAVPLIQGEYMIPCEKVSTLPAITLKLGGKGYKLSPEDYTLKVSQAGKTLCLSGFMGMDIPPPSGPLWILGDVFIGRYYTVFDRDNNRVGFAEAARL

Compound: CNC(=O)[C@@H](C[C@H](O)[C@@H]1COCc2cccc(c2)C(c2ccccc2)NC(=O)c2cc(cc(N(C)S(C)(=O)=O)c2)C(=O)N1)C(C)C (some centres not stated)
IC50 [1]: > 10000 nM
Ki [2]: 340 nM
Ki [4]: 1700 nM

Compound: COCCOC1CCCc2cc(cc(N(C)S(C)(=O)=O)c2)C(=O)N[C@H]([C@@H](O)C[C@H](C(=O)NCC(C)C)C(C)C)COCc2cccc1c2 (some centres not stated)
IC50 [1]: > 10000 nM
Ki [2]: 940 nM
Ki [4]: > 5000 nM

Compound: CC(C)CNC(=O)[C@@H](C[C@H](O)[C@@H]1COCc2cccc(c2)C(c2ccccc2)NC(=O)c2cc(cc(N(C)S(C)(=O)=O)c2)C(=O)N1)C(C)C (some centres not stated)
IC50 [1]: 3700 nM
Papp [6]: 0.1 ×10⁻⁶ cm/s
IC50 [3]: 56 nM
Ki [4]: 200 nM
Papp [7]: 0.1 ×10⁻⁶ cm/s

Compound: COCCOC1CCc2cc(cc(N(C)S(C)(=O)=O)c2)C(=O)N[C@H]([C@@H](O)C[C@H](C(=O)NCC(C)C)C(C)C)COCc2cccc1c2 (some centres not stated)
IC50 [1]: > 10000 nM
Ki [2]: > 5000 nM
Ki [4]: > 5000 nM

Compound: COCCCOc1cc(C[C@@H](C[C@H](N)[C@@H](O)C[C@H](C(=O)NCC(C)(C)C(N)=O)C(C)C)C(C)C)ccc1OC
Ratio [8]: 1.5
Ratio [9]: 0.7

Continued, values first:

IC50 [1]: 30 nM
Ki [2]: 21 nM
IC50 ([3]; read-out: IC50): 38 nM
Ki [4]: 3.3 nM
microsomal CLint [5]: 260 µL/min/mg
Compound: CC(C)[C@H](C[C@H](O)[C@H](COCc1ccccc1)NC(=O)c1cc(C(=O)N[C@H](C)c2ccccc2)cc(N(C)S(C)(=O)=O)c1)C(=O)N[C@H](C(=O)NCc1ccccc1)C(C)C

IC50 [1]: 1900 nM
Ki [2]: 450 nM
Ki [4]: 460 nM
Compound: COCCCC1NC(=O)c2cc(cc(N(C)S(C)(=O)=O)c2)C(=O)N[C@H]([C@@H](O)C[C@H](C(=O)NCC(C)C)C(C)C)COCc2cccc1c2 (some centres not stated)

IC50 [1]: 3100 nM
Ki [2]: 130 nM
Ki [4]: 760 nM
Compound: COc1ccc(C2NC(=O)c3cc(cc(N(C)S(C)(=O)=O)c3)C(=O)N[C@H]([C@@H](O)C[C@H](C(=O)NCC(C)C)C(C)C)COCc3cccc2c3)cc1 (some centres not stated)
